30 compounds from patent US11040033B2 (Gilead Sciences, Inc., priority 2017, dated 2021) can be followed below.

The term EC50 denotes the concentration giving half of the maximal effect. Read a high EC50 as lower potency in that assay.

The target of this test is T1, IDO1 (Homo sapiens, UniProt P14902).
T1 construct: HeLa cells were treated with a test compound in the presence of IFNγ, which induces IDO1 expression; endogenous in cells; host or cells: H1-HeLa cells (ATCC #CRL-1958), induced with IFNγ
T1 sequence (P14902 whole entry): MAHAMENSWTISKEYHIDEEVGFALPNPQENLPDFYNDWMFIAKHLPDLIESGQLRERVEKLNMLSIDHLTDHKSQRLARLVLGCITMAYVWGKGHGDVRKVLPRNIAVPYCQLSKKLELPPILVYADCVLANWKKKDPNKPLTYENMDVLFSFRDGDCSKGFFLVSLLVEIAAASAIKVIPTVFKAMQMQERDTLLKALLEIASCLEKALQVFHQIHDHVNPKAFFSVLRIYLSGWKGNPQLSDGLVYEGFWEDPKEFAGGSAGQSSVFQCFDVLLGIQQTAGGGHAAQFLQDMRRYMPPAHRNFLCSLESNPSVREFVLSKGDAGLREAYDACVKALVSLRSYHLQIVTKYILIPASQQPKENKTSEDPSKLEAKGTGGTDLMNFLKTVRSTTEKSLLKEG
The test can be described thus: Cell-based (HeLa) assay for measurement of IDO1 inhibition (kynurenine levels in supernatant after IFNγ induction). Conditions: H1-HeLa cells, IFNγ-induced IDO1, 48 hour incubation, kynurenine absorbance at 480 nm; geometric mean of a minimum of four determinations. The protocol: To measure IDO1 inhibition in tissue culture, HeLa cells were treated with a test compound in the presence of IFNγ, which induces IDO1 expression. Following incubation, cell supernatants were assayed for kynurenine levels, an indicator of IDO1 activity.
H1-HeLa cells (ATCC #CRL-1958) were seeded in 384-well plates (Greiner #82051-282) at a volume […] (Corning #15-018-CM) supplemented with 10% FBS (Corning #35-011-CV) and 1% P/S/G (Corning #30-009-CL) at a density of 1,250 cells/well and incubated overnight at 37° C., 5% CO2/100% humidity. The following day, the test compounds were added in DMSO (0.5% final) at various concentrations, and IDO1 was inducibly expressed by the addition of 50 uL/well of 50 ng/mL of INFγ(Peprotech #300-02) in cell plating media. As a positive control, 50 uL of the cell plating media without IFNγ was added to several wells. Following a 48 hour incubation, the plates were spun down at 1,200 RPM for 5 min at 10° C. 65 μL/well of the supernatant was then transferred to new 384-well plates (Thermo #262160) that contained 10 uL/well of 30% TCA (Sigma #T0699), and the plates were sealed and incubated at 60° C. for 30 min. The plates were then centrifuged for 15 min at 2,000 RPM at 10° C. 40 μL/well of the supernatant was transferred to new 384-well plates (Thermo #262160) and was reacted with 40 μL/well of 2% (w/v) p-dimethylaminobenzaldehyde (Sigma #156417) in glacial acetic acid (Sigma #A6283). The reaction was incubated at room temperature for 10 min and absorbance at 480 nm was read using a PerkinElmer Envision plate reader.
Data in Table 1 were normalized based on positive (−IFNγ) and negative (+IFNγ) controls and EC50 values were calculated from the fit of the dose-response curves to a four-parameter equation. All EC50 values represent geometric mean values of a minimum of four determinations. These assays generally produced results within 2-fold of the reported mean.
Compound `Cc1ccc(-c2cccn3c(-c4ccccc4C(N)=O)nnc23)cc1C(=O)Nc1ccc(F)cc1` [Example 1, 5-(3-(2-carbamoylphenyl)-[1,2,4]triazolo[4,3-a]pyridin-8-yl)-N-(4-fluorophenyl)-2-methylbenzamide] showed a concentration for a half-maximal effect (EC50) of 5340 nM.

The compound `Cc1nnc(-c2ncc3c(-c4ccc(C)c(C(=O)Nc5ccc(F)cc5)c4)cccn23)o1` [Example 2, N-(4-fluorophenyl)-2-methyl-5-(3-(5-methyl-1,3,4-oxadiazol-2-yl)imidazo[1,5-a]pyridin-8-yl)benzamide] yielded an EC50 of 3840 nM.

`Cc1ccc(-c2cccn3c(-c4cnnn4C)ncc23)cc1C(=O)Nc1ccc(F)cc1` [Example 3, N-(4-fluorophenyl)-2-methyl-5-(3-(1-methyl-1H-1,2,3-triazol-5-yl)imidazo[1,5-a]pyridin-8-yl)benzamide] showed an EC50 of 2190 nM.

As for `Cc1ccc(-c2cccn3c(-c4cccnc4C)nnc23)cc1C(=O)Nc1ccc(F)cc1` [Example 4, N-(4-fluorophenyl)-2-methyl-5-(3-(2-methylpyridin-3-yl)-[1,2,4]triazolo[4,3-a]pyridin-8-yl)benzamide], the EC50 was found to be 2160 nM.

The compound `Cc1ccc(-c2cccn3c(-c4ccc(F)cc4C)nnc23)cc1C(=O)Nc1ccc(F)cc1` [Example 5, 5-(3-(4-fluoro-2-methylphenyl)-[1,2,4]triazolo[4,3-a]pyridin-8-yl)-N-(4-fluorophenyl)-2-methylbenzamide] came in with an EC50 of 1410 nM.

In the case of `NC(=O)c1ccnc(-c2ncc3c(-c4ccc(C(F)(F)F)c(C(=O)Nc5ccc(F)cc5)c4)cccn23)c1` [Example 6, 2-(8-(3-((4-fluorophenyl)carbamoyl)-4-(trifluoromethyl)phenyl)imidazo[1,5-a]pyridin-3-yl)isonicotinamide], the EC50 worked out at 1330 nM.

`Cc1ccc(-c2cccn3c(-c4nnco4)ncc23)cc1C(=O)Nc1ccc(F)cc1` [Example 7] returned an EC50 of 1220 nM.

In turn, `Cn1nncc1-c1ncc2c(-c3ccc(C(F)(F)F)c(C(=O)Nc4ccc(F)cc4)c3)cccn12` [Example 8, N-(4-fluorophenyl)-5-(3-(1-methyl-1H-1,2,3-triazol-5-yl)imidazo[1,5-a]pyridin-8-yl)-2-(trifluoromethyl)benzamide] had an EC50 of 1200 nM.

With `Cc1ccc(-c2cccn3c(-c4ccccc4)nnc23)cc1C(=O)Nc1ccc(F)cc1` [Example 9, N-(4-fluorophenyl)-2-methyl-5-(3-phenyl-[1,2,4]triazolo[4,3-a]pyridin-8-yl)benzamide], a half-maximal response (EC50) required 809 nM. This EC50 and that of the compound before are within 1.5-fold of each other.

`N#Cc1ccnc(-c2ncc3c(-c4ccc(C(F)(F)F)c(C(=O)Nc5ccc(F)cc5)c4)cccn23)c1` [Example 10, 5-(3-(4-cyanopyridin-2-yl)imidazo[1,5-a]pyridin-8-yl)-N-(4-fluorophenyl)-2-(trifluoromethyl)benzamide]: it took 712 nM to reach a half-maximal effect (EC50).

Regarding `Cc1ccc(-c2cccn3c(-c4cccnc4)nnc23)cc1C(=O)Nc1ccc(F)cc1` [Example 11, N-(4-fluorophenyl)-2-methyl-5-(3-(pyridin-3-yl)-[1,2,4]triazolo[4,3-a]pyridin-8-yl)benzamide], the EC50 came to 683 nM.

Turning to `Cc1ccc(-c2cccn3c(-c4ccccc4C)nnc23)cc1C(=O)Nc1ccc(F)cc1` [Example 12, N-(4-fluorophenyl)-2-methyl-5-(3-(o-tolyl)-[1,2,4]triazolo[4,3-a]pyridin-8-yl)benzamide], a half-maximal response (EC50) required 403 nM.

`Cn1cnc(-c2ncc3c(-c4ccc(C(F)(F)F)c(C(=O)Nc5ccc(F)cc5)c4)cccn23)c1` [Example 13, N-(4-fluorophenyl)-5-(3-(1-methyl-1H-imidazol-4-yl)imidazo[1,5-a]pyridin-8-yl)-2-(trifluoromethyl)benzamide] returned an EC50 of 365 nM. This EC50 and that of the compound before are within 1.5-fold of each other.

In turn, `Cc1ccc(-c2cccn3c(-c4cn(C)cn4)ncc23)cc1C(=O)Nc1ccc(F)cc1` [Example 14, N-(4-fluorophenyl)-2-methyl-5-(3-(1-methyl-1H-imidazol-4-yl)imidazo[1,5-a]pyridin-8-yl)benzamide] came in with a concentration for a half-maximal effect (EC50) of 322 nM.

Compound `N#Cc1cccnc1-c1ncc2c(-c3ccc(C(F)(F)F)c(C(=O)Nc4ccc(F)cc4)c3)cccn12` [Example 15, 5-(3-(3-cyanopyridin-2-yl)imidazo[1,5-a]pyridin-8-yl)-N-(4-fluorophenyl)-2-(trifluoromethyl)benzamide] displayed an EC50 of 274 nM.

`Cc1ncc(-c2cccn3c(-c4ccccc4C(F)(F)F)ncc23)cc1C(=O)Nc1ccc(F)cc1` [Example 16, N-(4-fluorophenyl)-2-methyl-5-(3-(2-(trifluoromethyl)phenyl)imidazo[1,5-a]pyridin-8-yl)nicotinamide] yielded an EC50 of 239 nM.

Compound `O=C(Nc1ccc(F)cc1)c1cc(-c2cccn3c(-c4cccnn4)ncc23)ccc1C(F)(F)F` [Example 17, N-(4-fluorophenyl)-5-(3-(pyridazin-3-yl)imidazo[1,5-a]pyridin-8-yl)-2-(trifluoromethyl)benzamide] came in with an EC50 of 237 nM.

As for `Cc1ncc(-c2cccn3c(-c4cccc(F)c4C(F)(F)F)ncc23)cc1C(=O)Nc1ccc(F)cc1` [Example 18, 5-(3-(3-fluoro-2-(trifluoromethyl)phenyl)imidazo[1,5-a]pyridin-8-yl)-N-(4-fluorophenyl)-2-methylnicotinamide], the concentration for a half-maximal effect (EC50) was 211 nM. This EC50 and that of the compound before are within 1.5-fold of each other.

On to `Cc1ncc(-c2cccn3c(-c4ncccc4F)ncc23)cc1C(=O)Nc1ccc(F)cc1` [Example 19, N-(4-fluorophenyl)-5-(3-(3-fluoropyridin-2-yl)imidazo[1,5-a]pyridin-8-yl)-2-methylnicotinamide], for which the concentration for a half-maximal effect (EC50) was 199 nM.

Consider `Cc1ccc(-c2cccn3c(-c4cccc(F)c4F)nnc23)cc1C(=O)Nc1ccc(F)cc1` [Example 20, 5-(3-(2,3-difluorophenyl)-[1,2,4]triazolo[4,3-a]pyridin-8-yl)-N-(4-fluorophenyl)-2-methylbenzamide], for which the 50% effective concentration (EC50) amounted to 192 nM. The EC50 values of the last two compounds are within 1.5-fold of each other.

On to `O=C(Nc1ccc(F)cc1)c1cc(-c2cccn3c(-c4ccnc5ccccc45)ncc23)ccc1C(F)(F)F` [Example 21, N-(4-fluorophenyl)-5-(3-(quinolin-4-yl)imidazo[1,5-a]pyridin-8-yl)-2-(trifluoromethyl)benzamide], for which the EC50 came to 183 nM.

Turning to `Cc1cccc(-c2ncc3c(-c4cnc(C)c(C(=O)Nc5ccc(F)cc5)c4)cccn23)c1` [Example 22, N-(4-fluorophenyl)-2-methyl-5-(3-(m-tolyl)imidazo[1,5-a]pyridin-8-yl)nicotinamide], the concentration giving a half-maximal response (EC50) came to 135 nM.

`Cc1ncc(-c2cccn3c(-c4cc(F)ccn4)ncc23)cc1C(=O)Nc1ccc(F)cc1` [Example 23, N-(4-fluorophenyl)-5-(3-(4-fluoropyridin-2-yl)imidazo[1,5-a]pyridin-8-yl)-2-methylnicotinamide]: the EC50 came to 112 nM. The EC50 values of the last two compounds are within 1.5-fold of each other.

The compound `Cc1ncc(-c2cccn3c(-c4c(F)cccc4F)ncc23)cc1C(=O)Nc1ccc(F)cc1` [Example 24, 5-(3-(2,6-difluorophenyl)imidazo[1,5-a]pyridin-8-yl)-N-(4-fluorophenyl)-2-methylnicotinamide] came in with an EC50 of 104 nM.

`Cc1ncc(-c2cccn3c(-c4ncccn4)ncc23)cc1C(=O)Nc1ccc(F)cc1` [Example 25, N-(4-fluorophenyl)-2-methyl-5-(3-(pyrimidin-2-yl)imidazo[1,5-a]pyridin-8-yl)nicotinamide] showed an EC50 of 69 nM.

On to `O=C(Nc1ccc(F)cc1)c1cc(-c2cccn3c(-c4ccncn4)ncc23)ccc1C(F)(F)F` [Example 26, N-(4-fluorophenyl)-5-(3-(pyrimidin-4-yl)imidazo[1,5-a]pyridin-8-yl)-2-(trifluoromethyl)benzamide], for which the EC50 came to 66.4 nM. The EC50 values of the last two compounds are within 1.5-fold of each other.

`Cc1ncc(-c2cccn3c(-c4cc(F)cc(F)c4)ncc23)cc1C(=O)Nc1ccc(F)cc1` [Example 27, 5-(3-(3,5-difluorophenyl)imidazo[1,5-a]pyridin-8-yl)-N-(4-fluorophenyl)-2-methylnicotinamide] showed a 50% effective concentration (EC50) of 61.7 nM.

In turn, `O=C(Nc1ccc(F)cc1)c1cc(-c2cccn3c(-c4cccc(F)c4F)ncc23)ncc1C(F)(F)F` [Example 28, 2-(3-(2,3-difluorophenyl)imidazo[1,5-a]pyridin-8-yl)-N-(4-fluorophenyl)-5-(trifluoromethyl)isonicotinamide] registered an EC50 of 57.9 nM.

For the compound `Cc1ccccc1-c1ncc2c(-c3cnc(C)c(C(=O)Nc4ccc(F)cc4)c3)cccn12` [Example 29, N-(4-fluorophenyl)-2-methyl-5-(3-(o-tolyl)imidazo[1,5-a]pyridin-8-yl)nicotinamide], the EC50 turned out to be 44.7 nM.

As to `Cc1ncc(-c2cccn3c(-c4cc(F)ccc4F)ncc23)cc1C(=O)Nc1ccc(F)cc1` [Example 30], the half-maximal effective concentration (EC50) was determined as 39 nM.
